Laboratory results: publication PMC2949399, “Gene Expression Signature-Based Screening Identifies New Broadly Effective Influenza A Antivirals” (PLoS ONE, 2010)
Where two headings read alike, the source gives them in different places.

Assays:
in vitro = settings: human
influenza A viruses = type: cell-based, influenza A virus
A/Turkey/582/2006 (H5N1) [1] = tested on: A/Turkey/582/2006 (H5N1)
[2] = tested on: A/Chicken/Italy/2076/99 (H7N1)
[3] = tested on: A/Lyon/969/09 (H1N1 SOIV)
[4] = tested on: A/Finch/England/2051/94 (H5N2)
[5] = tested on: A/New Caledonia/20/99 (H1N1)
[6] = tested on: A/New Caledonia/20/99 (H1N1); test: microbe, parasite or virus in culture; settings: Influenza A virus
[7] = tested on: A/Lyon/969/09 (H1N1 SOIV); test: microbe, parasite or virus in culture; settings: Influenza A virus
[8] = tested on: A/Chicken/Italy/2076/99 (H7N1); test: microbe, parasite or virus in culture; settings: Influenza A virus, H7N1, A549, in Gallus gallus, 65 h
[9] = tested on: A/Finch/England/2051/94 (H5N2); test: microbe, parasite or virus in culture; settings: Influenza A virus, H5N2, A549, 65 h
A/Turkey/582/2006 (H5N1) [10] = test: microbe, parasite or virus in culture; settings: Influenza A virus
[11] = H1N1, A549, 65 h, read-out: EC50 H1N1 moi 0.2
[12] = H1N1, A549, 65 h, read-out: EC50 H1N1 moi 2
[13] = H1N1, A549, 65 h, read-out: EC50 SOIV moi 0.2
[14] = H1N1, A549, 65 h, read-out: EC50 SOIV moi 2
[15] = H5N1, A549, 65 h, read-out: EC50 H5N1 moi 0.2
[16] = H5N1, A549, 65 h, read-out: EC50 H5N1 moi 2

SMILES | CC50 (in vitro) | Inhibitor class across the tested viruses (influenza A viruses) | EC50 [6, 11] | EC50 [6, 12] | EC50 [7, 13] | EC50 [7, 14] | EC50 ([8]; read-out: EC50 H7N1 moi 0.2) | EC50 ([8]; read-out: EC50 H7N1 moi 2) | SI = CC50/EC50, H1N1 SOIV [3] | EC50 ([9]; read-out: EC50 H5N2 moi 0.2) | EC50 ([9]; read-out: EC50 H5N2 moi 2) | EC50 (A/Turkey/582/2006 (H5N1) [10]; [15]) | EC50 (A/Turkey/582/2006 (H5N1) [10]; [16]) | other results
Cc1cc(C(C)(C)CC(C)(C)C)ccc1OCCOCC[N+](C)(C)Cc1ccccc1 [Methylbenzethoniumchloride] | – | – | – | – | – | – | – | – | – | – | – | – | – | CC50 (A549 cells): 6.35 µM
O=C(O)CNC(=O)C(CS)Cc1ccccc1 (racemic) [DL-Thiorphan] | 6280 µM | – | – | – | – | – | – | – | – | – | – | – | – | –
CO[C@@]1(NC(=O)C(C(=O)O)c2ccc(O)cc2)C(=O)N2C(C(=O)O)=C(CSc3nnnn3C)CO[C@@H]21 (stereo partly drawn) [Latamoxef, moxalactam] | 593 µM | – | – | – | – | – | – | – | – | – | – | – | – | –
O=C([O-])c1ccccc1-c1c2cc(Br)c(=O)cc-2oc2[c]([Hg+])c([O-])c(Br)cc12.[Na+].[Na+].[OH-] [Merbromin, merbromine] | – | – | – | – | – | – | – | – | – | – | – | – | – | EC50 (influenza A viruses; read-out: EC50 (all viruses tested)): ~50 µM; EC50 (A/Turkey/582/2006 (H5N1) [1]; read-out: EC50 H5N1 moi 0.2): 46 µM; EC50 (A/Turkey/582/2006 (H5N1) [1]; read-out: EC50 H5N1 moi 2): 45 µM; SI = CC50/EC50, H7N1 [2]: 2.4; EC50 ([2]; read-out: EC50 H7N1 moi 0.2): 46.7 µM; EC50 ([2]; read-out: EC50 H7N1 moi 2): 43.7 µM; EC50 ([3]; read-out: EC50 SOIV moi 0.2): > 50 µM; EC50 ([3]; read-out: EC50 SOIV moi 2): 37.5 µM; CC50 (A549 cells): 104 µM; SI = CC50/EC50, H5N2 [4]: 2.7; EC50 ([4]; read-out: EC50 H5N2 moi 0.2): 21.9 µM; EC50 ([4]; read-out: EC50 H5N2 moi 2): 36.5 µM; SI = CC50/EC50, H1N1 [5]: 2.01; EC50 ([5]; read-out: EC50 H1N1 moi 0.2): 62 µM; EC50 ([5]; read-out: EC50 H1N1 moi 2): 29.6 µM
CO[C@H]1/C=C\C=C(/C)C(=O)NC2=CC(=O)C(NCCN(C)C)=C(C[C@@H](C)C[C@H](OC)[C@H](O)[C@@H](C)/C=C(\C)[C@@H]1OC(N)=O)C2=O [alvespimycin, Alvespimycin] | > 10 µM | – | – | – | – | – | – | – | – | – | – | – | – | –
NC(=O)c1ncn([C@@H]2O[C@H](CO)[C@@H](O)[C@H]2O)n1 [Ribavirin, ribavirin] | 29500 µM | strong inhibitor | 6.63 µM | 73.8 µM | 61.1 µM | 292 µM | 12.5 µM | 32.4 µM | 482 | 6.71 µM | 16.4 µM | 48.4 µM | 632 µM | SI = CC50/EC50, H5N1 (A/Turkey/582/2006 (H5N1) [1]): 911; EC50 ([6]; H1N1, A549, read-out: EC50 H1N1 moi 0.2): 6 µM; EC50 ([7]; H1N1, A549, read-out: EC50 SOIV moi 0.2): 61 µM; EC50 ([7]; H1N1, A549, read-out: EC50 SOIV moi 2): 292 µM; SI = CC50/EC50, H7N1 [2]: 1367; EC50 (A/Turkey/582/2006 (H5N1) [10]; H5N1, A549, read-out: EC50 H5N1 moi 2): 632 µM
CCCCCCCCNC(C)C(O)c1ccc(SC(C)C)cc1 (stereo not drawn) [Sulodictil] | 100 µM | – | – | – | – | – | – | – | – | – | – | – | – | –
Cc1nccc2c1[nH]c1cc(O)ccc12.Cl [Harmol, harmol hydrochloride] | – | – | – | – | – | – | – | – | 14 | – | – | – | – | EC50 (A/Turkey/582/2006 (H5N1) [1]; read-out: EC50 H5N1 moi 0.2): 43.4 µM; EC50 (A/Turkey/582/2006 (H5N1) [1]; read-out: EC50 H5N1 moi 2): 77.5 µM; EC50 ([2]; read-out: EC50 H7N1 moi 0.2): 28 µM; EC50 ([2]; read-out: EC50 H7N1 moi 2): 49.4 µM; EC50 ([3]; read-out: EC50 SOIV moi 0.2): 6.76 µM; EC50 ([3]; read-out: EC50 SOIV moi 2): 53.7 µM; CC50 (A549 cells): 95 µM; EC50 ([4]; read-out: EC50 H5N2 moi 0.2): 13.5 µM; EC50 ([4]; read-out: EC50 H5N2 moi 2): 4.06 µM; EC50 ([5]; read-out: EC50 H1N1 moi 0.2): 20.5 µM; EC50 ([5]; read-out: EC50 H1N1 moi 2): 60.4 µM
C1COC(NC(C2CC2)C2CC2)=N1 [Rilmenidine] | – | – | – | – | – | – | – | – | – | – | – | – | – | EC50 (A/Turkey/582/2006 (H5N1) [1]; read-out: EC50 H5N1 moi 0.2): 1470 µM; EC50 (A/Turkey/582/2006 (H5N1) [1]; read-out: EC50 H5N1 moi 2): 2040 µM; EC50 ([2]; read-out: EC50 H7N1 moi 0.2): 778 µM; EC50 ([2]; read-out: EC50 H7N1 moi 2): 1050 µM; Inhibitor class / antiviral effect, H1N1 SOIV [3]: ineffective; EC50 ([3]; read-out: EC50 SOIV moi 0.2): 864 µM; EC50 ([3]; read-out: EC50 SOIV moi 2): 1070 µM; CC50 (A549 cells): 1130 µM; EC50 ([4]; read-out: EC50 H5N2 moi 0.2): 359 µM; EC50 ([4]; read-out: EC50 H5N2 moi 2): 514 µM; EC50 ([5]; read-out: EC50 H1N1 moi 0.2): 24.2 µM; EC50 ([5]; read-out: EC50 H1N1 moi 2): 506 µM
CCN[C@H]1CN(CCCOC)S(=O)(=O)c2sc(S(N)(=O)=O)cc21 [Brinzolamide, brinzolamide] | 666 µM | weak to moderate inhibitors | 28.9 µM | 435 µM | 21.6 µM | 167 µM | 139 µM | 551 µM | 31 | 146 µM | 232 µM | > 500 µM | > 500 µM | Inhibitor class, H7N1 [2]: weak inhibitor; Inhibitor class, H5N2 [4]: weak inhibitor; Inhibitor class / antiviral effect, H1N1 [5]: moderate inhibitor
COc1cnc(NS(=O)(=O)c2ccc(N)cc2)nc1 [Sulfameter] | 4160 µM | – | – | – | – | – | – | – | – | – | – | – | – | –
Nc1ccccc1S(N)(=O)=O [2-Aminobenzenesulfonamide, 2-aminobenzenesulfonamide] | > 6900 µM | inefficient | > 690 µM | > 690 µM | 534 µM | 1820 µM | > 690 µM | > 690 µM | 13 | > 690 µM | > 690 µM | > 690 µM | > 690 µM | Cytotoxicity at the highest tested dose (A549 cells): none of these molecules was cytotoxic at the highest tested dose
COc1ccc(OC)c(C(O)CNC(=O)CN)c1 (stereo not drawn) [Midodrine, midodrine] | > 4250 µM | weak to moderate inhibitors | 29.8 µM | 1570 µM | 109 µM | 930 µM | > 4250 µM | > 4250 µM | 40 | 476 µM | 1670 µM | 3900 µM | > 4250 µM | SI = CC50/EC50, H5N1 (A/Turkey/582/2006 (H5N1) [1]): 1.09; Cytotoxicity at the highest tested dose (A549 cells): none of these molecules was cytotoxic at the highest tested dose
Nc1nc2c(c(=O)[nH]1)N(C=O)C(CNc1ccc(C(=O)N[C@@H](CCC(=O)O)C(=O)O)cc1)CN2 (stereo partly drawn) [Calcium Folinate, calcium folinate] | > 2400 µM | inefficient | > 800 µM | > 800 µM | > 2400 µM | > 2400 µM | > 800 µM | > 800 µM | – | > 800 µM | > 800 µM | > 800 µM | > 800 µM | Cytotoxicity at the highest tested dose (A549 cells): none of these molecules was cytotoxic at the highest tested dose
C[S+](C)[O-] [DMSO, dimethylsulfoxide] | – | – | – | – | – | – | – | – | – | – | – | – | – | EC50 (A/Turkey/582/2006 (H5N1) [1]; read-out: EC50 H5N1 moi 0.2): 1830 µM; EC50 (A/Turkey/582/2006 (H5N1) [1]; read-out: EC50 H5N1 moi 2): > 1600 µM; EC50 ([2]; read-out: EC50 H7N1 moi 0.2): 801 µM; EC50 ([2]; read-out: EC50 H7N1 moi 2): 1110 µM; EC50 ([3]; read-out: EC50 SOIV moi 0.2): 344 µM; EC50 ([3]; read-out: EC50 SOIV moi 2): 606 µM; EC50 ([4]; read-out: EC50 H5N2 moi 0.2): 564 µM; EC50 ([4]; read-out: EC50 H5N2 moi 2): 734 µM; EC50 ([5]; read-out: EC50 H1N1 moi 0.2): 174 µM; EC50 ([5]; read-out: EC50 H1N1 moi 2): > 1600 µM
